According to patent US20020031795A1, “Nitrocoumarins for detecting all micro-organisms” (priority 1998, published 2002):

Key:
Type in all cases: cell-based
[1] = tested on: Citrobacter diversus; assay: Growth of wild Enterobacteriaceae strain in Mueller-Hinton broth (optical density); details: 0.17 mmol/l
Method: (§1) The E. coli was grown for 24 hours at 35° C. on Columbia agar supplemented with sheep blood. The bacteria were then resuspended in sterile, distilled water and their density was adjusted to 0.5 on the MacFarland scale (i.e. about 10^8 cells/ml). This suspension was then diluted 100-fold in sterile Mueller-Hinton broth (i.e. to a final density of about 10^6 cells/ml).
(§2) Fifty microliters of each nitrocoumarin solution plus 50 μl of bacterial suspension were then added to the wells of a microtiter plate. The plates were incubated at 35° C. and the optical density and fluorescence of each well was read every 30 min for a total of 4 hours. Optical density (690 nm) readings were made using an Anthos 2001 spectrophotometer (Labtech International Limited), and fluorescence (excitation at 365 nm and emission at 440 nm) readings were made on a Biolite F1 2001 fluorometer (Labtech International Limited).
(§3) This experiment was designed to investigate whether or not it would be possible to detect Enterobacteriaceae other than E. coli using 7-nitrocoumarin-3-carboxylic acid. The conditions for this experiment were similar to those described for the first experiment (section A).
(§4) Five wild strains belonging to the species Citrobacter diversus, Enterobacter agglomerans, Hafnia alvei, Morganella morganii and Shigella sonnei were tested

[2] = tested on: Enterobacter agglomerans; assay: as above; details: 0.17 mmol/l
Method: as §1, §2, §3, §4

[3] = tested on: Morganella morganii; assay: as above; details: 0.17 mmol/l
Method: as §1, §2, §3, §4

[4] = tested on: Acinetobacter haemolyticus (ATCC 17906); assay: Fluorescence after 24 hours, serial dilutions in Trypticase Soy broth
Method: (§5) This experiment was performed to test 7-nitrocoumarin-3-carboxylic acid on sixteen (16) different types of microorganism, including one yeast species.
(§6) A mass of 10 mg of the indicator was dissolved in 4 ml of hot, distilled water and this solution was then added to 96 ml of Trypticase Soy broth. The resultant mixture was sterile-filtered.
(§7) All the microorganisms were grown for 24 hours in Trypticase Soy broth at 35° C. Each culture was then diluted 1,000-fold in Trypticase Soy broth and then serial 10-fold dilutions were made in more Trypticase Soy broth until the test aliquot contained no more microbial cells.
(§8) The resultant dilutions ranged from 10^−3 to 10^−13.
(§9) Fifty microliters of each dilution plus 50 μl of Trypticase Soy broth were added to wells of a microtiter plate with or without 7-nitrocoumarin-3-carboxylic acid.
(§10) The plates were read (T zero) and then incubated at 35° C. before being read again after 24 hours. Two different readings were made at each time point:
(§11) of the fluorescence (excitation at 365 nm and emission at 440 nm), using a Biolite F1 2001 fluorometer (Labtech International Limited), for wells containing 7-nitrocoumarin-3-carboxylic acid.

[5] = tested on: Listeria ivanovii (wild strain); assay: as above
Method: as §5, §6, §7, §8, §9, §10, §11

[6] = tested on: Moraxella osloensis (ATCC 19976); assay: as above
Method: as §5, §6, §7, §8, §9, §10, §11

[7] = tested on: Pseudomonas fluorescens (ATCC 13525); assay: as above
Method: as §5, §6, §7, §8, §9, §10, §11

[8] = tested on: Shigella sonnei (NCTC 8586); assay: as above
Method: as §5, §6, §7, §8, §9, §10, §11

[9] = tested on: Staphylococcus aureus (NCTC 6571); assay: as above
Method: as §5, §6, §7, §8, §9, §10, §11

[10] = tested on: Streptococcus mitis (NCTC 12261); assay: as above
Method: as §5, §6, §7, §8, §9, §10, §11

## O=C(O)c1cc2ccc([N+](=O)[O-])cc2oc1=O [7-nitrocoumarin-3-carboxylic acid]
[1]; 0 min
  Optical density (690 nm): 0.000
[1]; 30 min
  Optical density (690 nm): 0.000
[1]; 60 min
  Optical density (690 nm): 0.005
[1]; 90 min
  Optical density (690 nm): 0.011
[1]; 120 min
  Optical density (690 nm): 0.020
[1]; 150 min
  Optical density (690 nm): 0.050
[1]; 180 min
  Optical density (690 nm): 0.092
[1]; 210 min
  Optical density (690 nm): 0.143
[1]; 240 min
  Optical density (690 nm): 0.250
[2]; 0 min
  Optical density (690 nm): 0.000
[2]; 30 min
  Optical density (690 nm): −0.002
[2]; 60 min
  Optical density (690 nm): 0.002
[2]; 90 min
  Optical density (690 nm): 0.006
[2]; 120 min
  Optical density (690 nm): 0.027
[2]; 150 min
  Optical density (690 nm): 0.057
[2]; 180 min
  Optical density (690 nm): 0.155
[2]; 210 min
  Optical density (690 nm): 0.225
[2]; 240 min
  Optical density (690 nm): 0.323
[3]; 0 min
  Optical density (690 nm): 0.000
[3]; 30 min
  Optical density (690 nm): −0.010
[3]; 60 min
  Optical density (690 nm): −0.010
[3]; 90 min
  Optical density (690 nm): −0.005
[3]; 120 min
  Optical density (690 nm): 0.003
[3]; 150 min
  Optical density (690 nm): 0.020
[3]; 180 min
  Optical density (690 nm): 0.064
[3]; 210 min
  Optical density (690 nm): 0.116
[3]; 240 min
  Optical density (690 nm): 0.187
[4]; dilution 10^−3
  Fluorescence reading: 19231
[4]; dilution 10^−4
  Fluorescence reading: 17403
[4]; dilution 10^−5
  Fluorescence reading: 12614
[4]; dilution 10^−6
  Fluorescence reading: 9727
[4]; dilution 10^−7
  Fluorescence reading: 4236
[4]; dilution 10^−8
  Fluorescence reading: 1981
[4]; dilution 10^−9
  Fluorescence reading: 1938
[4]; dilution 10^−10
  Fluorescence reading: 2005
[4]; dilution 10^−11
  Fluorescence reading: 1947
[4]; dilution 10^−12
  Fluorescence reading: 1904
[4]; dilution 10^−13
  Fluorescence reading: 1938
[5]; dilution 10^−3
  Fluorescence reading: 16246
[5]; dilution 10^−4
  Fluorescence reading: 44910
[5]; dilution 10^−5
  Fluorescence reading: 13185
[5]; dilution 10^−6
  Fluorescence reading: 44865
[5]; dilution 10^−7
  Fluorescence reading: 9251
[5]; dilution 10^−8
  Fluorescence reading: 8137
[5]; dilution 10^−9
  Fluorescence reading: 44425
[5]; dilution 10^−10
  Fluorescence reading: 1663
[5]; dilution 10^−11
  Fluorescence reading: 1651
[5]; dilution 10^−12
  Fluorescence reading: 1691
[5]; dilution 10^−13
  Fluorescence reading: 1682
[6]; dilution 10^−3
  Fluorescence reading: 11426
[6]; dilution 10^−4
  Fluorescence reading: 9949
[6]; dilution 10^−5
  Fluorescence reading: 7700
[6]; dilution 10^−6
  Fluorescence reading: 5875
[6]; dilution 10^−7
  Fluorescence reading: 1925
[6]; dilution 10^−8
  Fluorescence reading: 1941
[6]; dilution 10^−9
  Fluorescence reading: 1977
[6]; dilution 10^−10
  Fluorescence reading: 2039
[6]; dilution 10^−11
  Fluorescence reading: 1938
[6]; dilution 10^−12
  Fluorescence reading: 1907
[6]; dilution 10^−13
  Fluorescence reading: 1945
[7]; dilution 10^−3
  Fluorescence reading: 8985
[7]; dilution 10^−4
  Fluorescence reading: 1774
[7]; dilution 10^−5
  Fluorescence reading: 1657
[7]; dilution 10^−6
  Fluorescence reading: 1625
[7]; dilution 10^−7
  Fluorescence reading: 1716
[7]; dilution 10^−8
  Fluorescence reading: 1690
[7]; dilution 10^−9
  Fluorescence reading: 1736
[7]; dilution 10^−10
  Fluorescence reading: 1666
[7]; dilution 10^−11
  Fluorescence reading: 1691
[7]; dilution 10^−12
  Fluorescence reading: 1666
[7]; dilution 10^−13
  Fluorescence reading: 1624
[8]; dilution 10^−3
  Fluorescence reading: 51755
[8]; dilution 10^−4
  Fluorescence reading: 50254
[8]; dilution 10^−5
  Fluorescence reading: 50166
[8]; dilution 10^−6
  Fluorescence reading: 50278
[8]; dilution 10^−7
  Fluorescence reading: 49882
[8]; dilution 10^−8
  Fluorescence reading: 47370
[8]; dilution 10^−9
  Fluorescence reading: 1816
[8]; dilution 10^−10
  Fluorescence reading: 1990
[8]; dilution 10^−11
  Fluorescence reading: 1960
[8]; dilution 10^−12
  Fluorescence reading: 1956
[8]; dilution 10^−13
  Fluorescence reading: 1911
[9]; dilution 10^−3
  Fluorescence reading: 46607
[9]; dilution 10^−4
  Fluorescence reading: 45207
[9]; dilution 10^−5
  Fluorescence reading: 44544
[9]; dilution 10^−6
  Fluorescence reading: 43559
[9]; dilution 10^−7
  Fluorescence reading: 41437
[9]; dilution 10^−8
  Fluorescence reading: 1678
[9]; dilution 10^−9
  Fluorescence reading: 1666
[9]; dilution 10^−10
  Fluorescence reading: 1666
[9]; dilution 10^−11
  Fluorescence reading: 1620
[9]; dilution 10^−12
  Fluorescence reading: 1706
[9]; dilution 10^−13
  Fluorescence reading: 1669
[10]; dilution 10^−3
  Fluorescence reading: 20988
[10]; dilution 10^−4
  Fluorescence reading: 21541
[10]; dilution 10^−5
  Fluorescence reading: 19899
[10]; dilution 10^−6
  Fluorescence reading: 19619
[10]; dilution 10^−7
  Fluorescence reading: 17228
[10]; dilution 10^−8
  Fluorescence reading: 1682
[10]; dilution 10^−9
  Fluorescence reading: 1676
[10]; dilution 10^−10
  Fluorescence reading: 1691
[10]; dilution 10^−11
  Fluorescence reading: 1636
[10]; dilution 10^−12
  Fluorescence reading: 1644
[10]; dilution 10^−13
  Fluorescence reading: 1669
